Patent publication US20130230486A1, “COMPOSITIONS AND METHODS TO INDUCE TARGETED APOPTOSIS” (priority 2010, published 2013)

Legend:
PTPN13 [1] = test: PTPN13 protein expression by Western blot in lung fibroblasts; format: cell-based, human; settings: normal, fibrotic and MRC5 fibroblasts; TNF-α 10 ng/ml, IFN-γ 50 U/ml; 36 hours
Protocol: (§1) To assess the effects of these cytokines on PTPN13 expression, non-diseased normal human lung fibroblasts (NHLF), fibrotic human lung fibroblasts (FHLF) and a fetal lung fibroblast cell line, MRC5 cells, were treated with TNF-α (10/ng/ml), IFN-γ (50 U/ml) or with both cytokines for 6 hours. PTPN13 expression was measured by quantitative PCR (FIG. 2A). The primary lung fibroblasts from normal and fibrotic lung had equivalent levels of PTPN13 expression to the MRC5 lung fibroblast cell line. […] Treatment with TNF-α alone caused a 40% decrease in PTPN13 expression. Combined exposure to TNF-α and IFN-γ decreased PTPN13 mRNA expression by 80%. Protein lysates from normal, fibrotic and MRC5 fibroblasts treated for 36 hours with TNF-α (10/ng/ml), IFN-γ (50 U/ml) or with both cytokines were then analyzed for PTPN13 expression. […]
In one exemplary method, to assess whether PTPN13 expression prevents Fas-induced apoptosis, PTPN13 expression was knocked-down using siRNA. […] Apoptosis was assayed by quantifying activation of caspase-3 and caspase-8 (FIG. 3C).
FIG. 3: Decreased PTPN13 expression sensitizes fibroblasts to Fas-induced apoptosis. […] PTPN13 expression was quantified by western blot analysis and densitometry was performed. […] Fas activating antibody (250 ng/ml) (Fas activating antibody) or PBS (unstimulated) was added for 2 hours before analyzing Caspase-8 activation by a fluorescence-based assay. c. […]

PTPN13 [2] = test: PTPN13 mRNA expression by quantitative PCR in lung fibroblasts; format: cell-based, human; settings: NHLF, FHLF and MRC5, IFN-γ 50 U/ml, 6 hours
Protocol: as §1
FIG. 2: TNF-α and IFN-γ decrease PTPN13 expression. […] A. Top panel is a quantitative RT-PCR analysis of PTPN13 mRNA lower panel is a Western blot analysis for PTPN13 protein.B. Time course of PTPN13 mRNA expression following TNF-a (10 ng/ml) and IFN-g (50 U/ml) treatment. […] Caspase-8 was measured using a fluorescence based assay.
Total RNA was obtained from 1×10^6 MRC5 cells using the Qiagen RNA Miniprep Kit (Qiagen) following the manufacturer's instructions. […] The fluorescence values of the threshold cycles were collected and normalized to GAPDH. […]

murine model of fibrosis = test: Bleomycin murine model of fibrosis, mortality; format: in vivo, mouse; settings: 2.5 U/kg bleomycin into the trachea
Protocol: To assess the effect of PTPN13 on development of fibrosis in vivo, we used a murine model of fibrosis in a PTPN13-/- mouse. The PTPN13-/- mouse has been characterized by Grusby to have abnormal STAT4 signaling which leads to augmented skewing toward TH1 or TH2 phenotypes. 2.5 U/kg bleomycin was administered directly into the tracheas of PTPN13-/- mice along with wildtype controls. […] Due to drastic weight decreases in the wildtype mice, two weeks was chosen as the end time point. […] Of the 20 wildtype mice treated with bleomycin, 11 (55%) died before two weeks as compared to the PTPN13-/- mice where three of the 20 (15%) died. Saline had no effect on mortality. Then static compliance was measured. The saline treated wildtype and PTPN13-/- mice had similar values of static compliance. […] Collagen content was measured in the lung using a hydroxyproline assay. […] To determine a possible cause for the decreased static compliance in the PTPN13-/- mice, we also measured other markers of lung disease, such as cellular infiltration and capillary leak. We measured the cellularity of the bronchoalveolar fluid (BALF). […] Capillary leak was determined by albumin present in the BALF (FIG. 6F). […] To validate these findings, stereology was performed on lung sections to quantify presence of collagen and diseased areas. […] Percentage of diseased lung was also measured by stereology. […]

Question: How did the “PTPN13 protein expression (Western blot)” value (PTPN13 [1]) turn out when “IFN-γ: Recombinant human IFN-γ purchased from R&D Systems” was run?
Answer: The value was “not decreased”.

Question: And the “PTPN13 mRNA expression compared to untreated cells (in words)” value (PTPN13 [2])?
Answer: The value was “minimal decrease”.

Question: What does the source list for bleomycin?
Answer: mice that died before two weeks (murine model of fibrosis; PTPN13-/- mice, three of 20): 15%; mice that died before two weeks (murine model of fibrosis; wildtype mice, 11 of 20): 55%

Question: For TNF-α, which “PTPN13 protein expression (Western blot)” value (PTPN13 [1]) is on record?
Answer: The value was “decreased”.

Question: What about the “decrease in PTPN13 mRNA expression” value (PTPN13 [2]; TNF-α 10 ng/ml, compared to untreated cells) of the same substance?
Answer: Its value is 40%.
